Assay results published in ChEMBL document CHEMBL1151568, “New TXA2/PGH2 receptor antagonists based on the carbacyclin skeleton” (Bioorg Med Chem Lett, 1993).

Key:
Homo sapiens [1] = organism: Homo sapiens; assay: Compound was tested for its ability to inhibit blood platelet aggregation induced by ADP; format: functional
Prostacyclin receptor [2] = target: T1, Prostacyclin receptor (Homo sapiens, UniProt P43119); assay: (§1) Compound was tested for Prostanoid IP receptor affinity and expressed as competition factor (CF) which is the ratio of IC50 of test to IC50 of standard
[3] = target: T2, Thromboxane A2 receptor (Homo sapiens) (UniProt P21731); assay: TP receptor affinity, expressed as competition factor (CF) which is the ratio of IC50 of test to IC50 of standard
T2 sequence (whole entry): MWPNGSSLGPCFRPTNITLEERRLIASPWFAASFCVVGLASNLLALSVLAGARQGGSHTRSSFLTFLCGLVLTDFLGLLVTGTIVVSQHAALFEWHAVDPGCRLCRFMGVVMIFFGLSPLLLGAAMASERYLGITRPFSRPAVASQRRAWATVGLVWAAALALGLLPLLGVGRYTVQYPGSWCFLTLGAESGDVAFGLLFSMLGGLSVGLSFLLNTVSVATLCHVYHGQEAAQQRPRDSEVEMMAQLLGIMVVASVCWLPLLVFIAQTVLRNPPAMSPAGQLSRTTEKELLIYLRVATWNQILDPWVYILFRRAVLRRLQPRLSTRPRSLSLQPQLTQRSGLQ

[4] = target: T2, Thromboxane A2 receptor (Homo sapiens); assay: Antiaggregatory potency relative to TP-receptor antagonist SQ 29548; format: functional
Homo sapiens [5] = organism: Homo sapiens; assay: Compound was tested for its ability to inhibit blood platelet aggregation induced by TP-receptor agonist U 46619; format: functional
Prostacyclin receptor [6] = target: T1, Prostacyclin receptor; assay: as §1; remark: listed apart in the source

T1 sequence (P43119 whole entry): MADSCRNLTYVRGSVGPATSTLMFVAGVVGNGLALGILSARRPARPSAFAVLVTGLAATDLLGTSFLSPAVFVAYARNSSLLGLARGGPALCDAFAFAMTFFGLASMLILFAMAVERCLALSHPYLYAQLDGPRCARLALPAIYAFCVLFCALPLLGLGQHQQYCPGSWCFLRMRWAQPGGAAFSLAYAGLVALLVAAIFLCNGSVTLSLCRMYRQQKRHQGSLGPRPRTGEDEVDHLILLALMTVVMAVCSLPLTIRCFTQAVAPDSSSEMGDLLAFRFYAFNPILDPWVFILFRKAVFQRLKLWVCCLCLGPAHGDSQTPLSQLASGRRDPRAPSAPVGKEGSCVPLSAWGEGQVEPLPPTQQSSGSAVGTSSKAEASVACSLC

For `O=C(O)CCC/C=C1\C[C@H]2C[C@@H](O)[C@H](/C=N\OC(c3ccccc3)c3ccccc3)[C@H]2C1`, the IC50 (Homo sapiens [1]) was 1000 nM, the CF (Prostacyclin receptor [2]) was 160 and the CF [3] was 95. The Relative potency [4] was 0.03 and the IC50 (Homo sapiens [5]) was 1600 nM.
With `O=C(O)CCC/C=C1/C[C@H]2C[C@@H](O)[C@H](/C=N/OCc3ccccc3)[C@H]2C1` the IC50 (Homo sapiens [1]) was greater than 50000 nM, the CF (Prostacyclin receptor [2]) was 100 and the CF [3] was 470. It also gave a Relative potency [4] of 0.001 and an IC50 (Homo sapiens [5]) of 5400 nM.
In the case of `O=C(O)CC/C=C1/C[C@H]2C[C@@H](O)[C@H](/C=N/NC(=O)Nc3ccc([N+](=O)[O-])cc3)[C@H]2C1`, the CF [3] is reported as 0.5 and the Relative potency [4] is reported as 8.3.
Compound `O=C(O)COC/C=C1/C[C@H]2C[C@@H](O)[C@H](/C=N/NC(=O)Nc3cccc(Cl)c3)[C@H]2C1` has a CF [3] of 4 and a Relative potency [4] of 0.11.
Work on `O=C(O)CCC/C=C1\C[C@H]2C[C@@H](O)[C@H](/C=N/NC(=O)Nc3ccccc3)[C@H]2C1` yielded a CF [3] of 20 and a Relative potency [4] of 0.005.
In the case of `O=C(O)COC/C=C1\C[C@H]2C[C@@H](O)[C@H](/C=N/NC(=O)Nc3ccc([N+](=O)[O-])cc3)[C@H]2C1`, the CF [3] is reported as 9.4 and the Relative potency [4] is reported as 0.33.
`O=C(O)CCC/C=C1\C[C@H]2C[C@@H](O)[C@H](/C=N/NC(=O)Nc3cccc(Cl)c3)[C@H]2C1` gave a CF [3] of 1.6 and a Relative potency [4] of 0.09.
Work on `O=C(O)CCC/C=C1\C[C@H]2C[C@@H](O)[C@H](/C=N/OCc3ccc4ccccc4c3)[C@H]2C1` yielded an IC50 (Homo sapiens [1]) of 1100 nM, a CF (Prostacyclin receptor [2]) of 31 and a CF [3] of 280. The Relative potency [4] was 0.03 and the IC50 (Homo sapiens [5]) was 1600 nM.
For `O=C(O)CCC/C=C1/C[C@H]2C[C@@H](O)[C@H](/C=N/NC(=O)Nc3ccccc3)[C@H]2C1`, the CF [3] was 1.5 and the Relative potency [4] was 0.17.
Work on `O=C(O)CCC/C=C1\C[C@H]2CC[C@H](/C=N/NC(=O)Nc3ccc(Cl)c(Cl)c3)[C@H]2C1` yielded a CF [3] of 4.3 and a Relative potency [4] of 0.002.
For `O=C(O)COC/C=C1/C[C@H]2C[C@@H](O)[C@H](/C=N/NC(=O)Nc3ccc([N+](=O)[O-])cc3)[C@H]2C1`, the CF [3] was 0.9 and the Relative potency [4] was 1.
`O=C(O)CCC/C=C1\C[C@H]2C[C@@H](O)[C@H](/C=N/OCc3ccccc3)[C@H]2C1` gave an IC50 (Homo sapiens [1]) of 2000 nM, a CF (Prostacyclin receptor [2]) of 7 and a CF [3] greater than 1000. It also gave a Relative potency [4] of 0.009 and an IC50 (Homo sapiens [5]) of 1900 nM.
Compound `O=C(O)CCC/C=C1\C[C@H]2C[C@@H](O)[C@H](/C=N/NC(=O)Nc3ccc([N+](=O)[O-])cc3)[C@H]2C1` has a CF [3] of 0.7 and a Relative potency [4] of 0.1.
With `O=C(O)CCC/C=C1\C[C@H]2CC[C@H](/C=N/NC(=O)Nc3ccc([N+](=O)[O-])cc3)[C@H]2C1` the CF [3] was 2.2 and the Relative potency [4] was 0.01.
In the case of `O=C(O)CCC/C=C1/C[C@H]2CC[C@H](/C=N/NC(=O)Nc3ccc([N+](=O)[O-])cc3)[C@H]2C1`, the CF [3] is reported as 0.7 and the Relative potency [4] is reported as 0.01.
`O=C(O)CC/C=C1/C[C@H]2C[C@@H](O)[C@H](/C=N/NC(=O)Nc3cccc(Cl)c3)[C@H]2C1` gave a CF [3] of 2.4 and a Relative potency [4] of 0.11.
`O=C(O)CC/C=C1\C[C@H]2C[C@@H](O)[C@H](/C=N/NC(=O)Nc3cccc(Cl)c3)[C@H]2C1` showed a CF [3] of 50 and a Relative potency [4] of 0.004.
Work on `O=C(O)CCC/C=C1\C[C@H]2CC[C@H](/C=N/NC(=O)Nc3ccccc3)[C@H]2C1` yielded a CF [3] of 40 and a Relative potency [4] of 0.0004.
With `O=C(O)CCC/C=C1/C[C@H]2C[C@@H](O)[C@H](/C=N/NC(=O)Nc3cccc(Cl)c3)[C@H]2C1` the CF [3] was 0.2 and the Relative potency [4] was 0.25.
Compound `O=C(O)CCC/C=C1\C[C@H]2CC[C@H](/C=N/NC(=O)Nc3cccc(Cl)c3)[C@H]2C1` has a CF [3] of 16 and a Relative potency [4] of 0.0007.
With `O=C(O)CC/C=C1\C[C@H]2C[C@@H](O)[C@H](/C=N/NC(=O)Nc3ccc(Cl)c(Cl)c3)[C@H]2C1` the CF [3] was 16 and the Relative potency [4] was 0.008.
In the case of `O=C(O)CC/C=C1\C[C@H]2C[C@@H](O)[C@H](/C=N/NC(=O)Nc3ccc([N+](=O)[O-])cc3)[C@H]2C1`, the CF [3] is reported as 22 and the Relative potency [4] is reported as 0.027.
For `O=C(O)COC/C=C1\C[C@H]2C[C@@H](O)[C@H](/C=N/NC(=O)Nc3ccccc3)[C@H]2C1`, the CF [3] was 138 and the Relative potency [4] was 0.008.
`O=C(O)CCC/C=C1\C[C@H]2C[C@@H](O)[C@H](/C=N/OCc3ccc(F)cc3)[C@H]2C1` showed an IC50 (Homo sapiens [1]) of 1500 nM, a CF (Prostacyclin receptor [2]) of 20 and a CF [3] greater than 1000. For the same compound, the Relative potency [4] was 0.009 and the IC50 (Homo sapiens [5]) was 1900 nM.
With `O=C(O)CCC/C=C1/C[C@H]2C[C@@H](O)[C@H](/C=N/OCc3ccc(F)cc3)[C@H]2C1` the CF (Prostacyclin receptor [2]) was 250, the CF [3] was 500 and the Relative potency [4] was 0.001. The IC50 (Homo sapiens [5]) was 14000 nM.
Compound `O=C(O)CCC/C=C1/C[C@H]2C[C@@H](O)[C@H](/C=N/NC(=O)Nc3ccc(Cl)c(Cl)c3)[C@H]2C1` has a CF [3] of 0.1 and a Relative potency [4] of 1.
In the case of `O=C(O)CCC/C=C1/C[C@H]2C[C@@H](O)[C@H](/C=N/NC(=O)Nc3ccc([N+](=O)[O-])cc3)[C@H]2C1`, the CF [3] is reported as 0.1 and the Relative potency [4] is reported as 0.33.
`O=C(O)CCC/C=C1\C[C@H]2C[C@@H](O)[C@H](/C=N/NC(=O)Nc3ccc(Cl)c(Cl)c3)[C@H]2C1` was tested, and the CF [3] was 0.8 and the Relative potency [4] was 0.038.
Work on `O=C(O)CCC/C=C1/C[C@H]2CC[C@H](/C=N/NC(=O)Nc3ccc(Cl)c(Cl)c3)[C@H]2C1` yielded a CF [3] of 1.6 and a Relative potency [4] of 0.003.
`O=C(O)CC/C=C1/C[C@H]2C[C@@H](O)[C@H](/C=N/NC(=O)Nc3ccccc3)[C@H]2C1` gave a CF [3] of 10 and a Relative potency [4] of 0.059.
Work on `O=C(O)COC/C=C1\C[C@H]2C[C@@H](O)[C@H](/C=N/NC(=O)Nc3cccc(Cl)c3)[C@H]2C1` yielded a CF [3] of 18 and a Relative potency [4] of 0.03.
`O=C(O)CC/C=C1\C[C@H]2C[C@@H](O)[C@H](/C=N/NC(=O)Nc3ccccc3)[C@H]2C1` showed a CF [3] of 454 and a Relative potency [4] of 0.0007.
For `O=C(O)COC/C=C1/C[C@H]2C[C@@H](O)[C@H](/C=N/NC(=O)Nc3ccc(Cl)c(Cl)c3)[C@H]2C1`, the CF [3] was 0.7 and the Relative potency [4] was 0.33.
With `O=C(O)COC/C=C1/C[C@H]2C[C@@H](O)[C@H](/C=N/NC(=O)Nc3ccccc3)[C@H]2C1` the CF [3] was 16 and the Relative potency [4] was 0.014.
Compound `O=C(O)CCC/C=C1/C[C@H]2C[C@@H](O)[C@H](/C=N/OCc3ccc4ccccc4c3)[C@H]2C1` has a CF (Prostacyclin receptor [2]) of 76, a CF [3] of 90 and a Relative potency [4] of 0.002. For the same compound, the IC50 (Homo sapiens [5]) was 2200 nM.
With `O=C(O)COC/C=C1\C[C@H]2C[C@@H](O)[C@H](/C=N/NC(=O)Nc3ccc(Cl)c(Cl)c3)[C@H]2C1` the CF [3] was 2.9 and the Relative potency [4] was 0.11.
`O=C(O)CCC/C=C1/C[C@H]2C[C@@H](O)[C@H](/C=N\OC(c3ccccc3)c3ccccc3)[C@H]2C1` was tested, and the IC50 (Prostacyclin receptor [6]) was “NC”, the CF [3] was 210 and the Relative potency [4] was 0.001. It also gave an IC50 (Homo sapiens [5]) of 23000 nM.
`O=C(O)CCC/C=C1/C[C@H]2CC[C@H](/C=N/NC(=O)Nc3ccccc3)[C@H]2C1` gave a CF [3] of 3 and a Relative potency [4] of 0.002.
`O=C(O)CC/C=C1/C[C@H]2C[C@@H](O)[C@H](/C=N/NC(=O)Nc3ccc(Cl)c(Cl)c3)[C@H]2C1` gave a CF [3] of 0.8 and a Relative potency [4] of 0.33.
